Molecules are shown by their SMILES.

The record followed here is patent publication US8906888B2, “Low-calcemic 16,23-diene 25-oxime analogs of 1α,25-dihydroxy vitamin D3” (Cytochroma Inc., priority 2005, dated 2014).

One assay deals with T1, CYP24 (Homo sapiens, UniProt Q07973).
T1 construct: expressed in transfected cells; host or cells: V79-CYP24 cells (V79 = Chinese hamster lung fibroblasts, own knowledge; kept under hygromycin selection)
T1 sequence (Q07973 36-514): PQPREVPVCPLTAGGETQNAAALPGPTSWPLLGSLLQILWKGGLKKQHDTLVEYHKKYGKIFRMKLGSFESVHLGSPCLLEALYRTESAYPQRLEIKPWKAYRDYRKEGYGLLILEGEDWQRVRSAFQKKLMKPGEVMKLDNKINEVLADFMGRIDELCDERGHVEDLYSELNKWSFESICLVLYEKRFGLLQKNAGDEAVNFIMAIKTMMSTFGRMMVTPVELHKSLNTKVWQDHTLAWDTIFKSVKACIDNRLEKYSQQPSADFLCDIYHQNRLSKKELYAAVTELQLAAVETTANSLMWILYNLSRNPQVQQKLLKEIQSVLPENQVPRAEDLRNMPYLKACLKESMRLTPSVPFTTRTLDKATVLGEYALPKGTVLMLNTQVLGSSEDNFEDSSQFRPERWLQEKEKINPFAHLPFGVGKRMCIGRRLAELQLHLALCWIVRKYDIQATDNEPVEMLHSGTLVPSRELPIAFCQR
The assay is described as follows: CYP24 enzyme assay (V79-CYP24 cells, 3H-1α,25(OH)2D3 substrate). Type of assay: cell-based. The conditions noted are these: substrate 20 nM, 2 hours, read-out: IC50 in the inhibition of CYP24. The protocol: (i) Material and Reagents:
Substrates (1 mM) reconstituted in isopropanol
1. Preparation of Cell Suspension • On the day of the assay, washed the monolayer of V79-CYP24 cells once with 1×PBS buffer and then trypsinized for 5 min at room temperature (approx. 22° C.). Added 1×PBS. Collected cells into tube, centrifuged cells (500×g, 5 min) and resuspended in DMEM+1% BSA media. Counted cells and adjusted density to 2 million/1 mL.
2. Cell Plating • Added 80 μl of cell suspension to appropriately labeled wells of a 96-well plate. Incubated plate for 45 minutes at 37° C. in a humidified atmosphere containing 5% CO2.
3. Compound Addition • Added 10 μl of inhibitor (10^−6 to 10^−10 M) and then after 35-40 min added 10 μl of substrate [^3H-1β]-1α,25(OH)2D3 (20 nM) for 2 hours at 37° C. in a humidified atmosphere containing 5% CO2. Both inhibitor and substrate were prepared in DMEM with 1% BSA media.
4. Lipid Extraction and Counting • Added 250 μl of methanol to stop the reaction and mixed. Added […] of dichloromethane, covered block and vortexed. Added […] of dichloromethane again, added […] of saturated KCl and vortexed. Centrifuged at 3000 rpm for 30 min. Triplicate 100 μl aliquots of aqueous fraction were mixed with 200 μl of scintillation fluid and the radioactivity was measured using a scintillation counter. All values were normalized for background. (iii) Results: • 1. […] (iv) Reference: 1. PCT Patent Application Serial No. PCT/CA03/00620

The next assay deals with CYP24 mRNA. The experiment in a line: CYP24 transcriptional activation assay in U-937 cells (real time PCR). Type of assay: cell-based, human. The settings on record: six hours, normalized to GAPDH, 100 nM calcitriol set to 100%. How it is done:
1α,25(OH)2D3 1 mM reconstituted in isopropanol
• Sodium pyruvate • Non-essential amino acids • HEPES • 10% fetal bovine serum Phorbol 12-myristate 13-acetate (PMA) 24-well plate Isopropanol TRIzol® reagent (Invitrogen) Chloroform Ethanol Diethylpyrocarbonate treated dH2O Thermoscript™ RT-PCR System kit (Invitrogen) Human CYP24 TaqMan® Probe (Applied Biosystems Inc) Human GAPDH TaqMan® Probe (Applied Biosystems Inc) TaqMan® Universal Master Mix Probe (Applied Biosystems Inc) (ii) Procedure:
1. Cell Culture, Stimulation and Plating • Cultured U-937 cells in 4+RPMI media to a level of ≈80% confluence. Pelleted cells by centrifugation and resuspended to a concentration of 5×10^5 cells per 1 ml media. Treated U-937 cells with a final concentration of PMA of 20 ng/ml. To each well, of a 24-well plate, added 1 ml of cell suspension and incubated overnight at 37° C., in a humidified atmosphere containing 5% CO2, for adherence of cells to the wells.
2. Cell Treatment and TRIzol® Addition • Changed the media with 1 ml of fresh 4+RPMI media. Added 1 μl of the working solutions of 1, 10, and 100 μM of the compound being tested, in triplicate. Added 1 μl of isopropanol as a control, in triplicate. Incubated the cells for six hours at 37° C., in a humidified atmosphere containing 5% CO2, aspirated off the media and then added 1 ml of TRIzol® reagent. Transferred TRIzol® with cell lysate to a 1.7 ml microcentrifuge tube and stored at −80° C.
3. […] Determined the concentration of RNA using a spectrophotometer to measure the optical density of each sample, at a wavelength of 260 nm. […]
4. CYP24/GAPDH Real Time PCR • Determined the amount of CYP24 and GAPDH mRNA present in each sample using commercial TaqMan® probes, from Applied Biosystems Inc. (Foster City, Calif.). Detected both genes in the same 20 μl reaction, using an ABI PRISM 96-well optical reaction plate and cycle 50 times using an ABI Prism 7000 Sequence Detection System® (ABI). […]

Take `C=C1/C(=C\C=C2/CCC[C@]3(C)C([C@H](C)C/C=C/C(=NOC)C(C)(C)C)=CC[C@@H]23)C[C@@H](O)C[C@@H]1O` [(20R)-I(e)]: the IC50 on CYP24 was found to be 0.0207 µM. In addition, the “CYP24 mRNA induction, activity as % of that for calcitriol at 100 nM” value in the assay with CYP24 mRNA was 65%.
